# Experimental data from patent US20220362326A1, “INHIBITING ZD17-JNK I[…] A THERAPY FOR ACUTE MYOCARDIAL INFARCTION” (The University of British Columbia, priority 2019, published 2022).
# Ends that are not written are not given here.
# Assays:
# [1] = system: rat model of AMI; assay: Rat model of AMI: heart function (hemodynamic) measurement; conditions: rats, 20 mg/kg i.v. at 0, 24 and 48 hours after surgery, measured 4 weeks after last injection
# Experimental: Rats were subjected to AMI by ligation of the left anterior descending coronary artery as described previously (Yu, J. G. et al. Acta Pharmacol Sin 34, 1508-1514, doi:10.1038/aps.2013.147 (2013)). Briefly, rats were anesthetized with 100 mg/kg ketamine hydrochloride and 10 mg/kg diazepam by intraperitoneal injection and then received artificial ventilation using a respirator (Shanghai Alcott Biotech, China, ALC-V8) with a tidal volume of 20 mL and a respiratory rate of 60/min. The heart was exteriorized through the 4th intercostal space and the left anterior descending coronary artery was ligated using a 6-0 suture. Rats were placed back in their home cages after the incision was closed. Sham rats underwent the same protocol except without ligation of the coronary artery.
# Hemodynamic assessments in rats were conducted as described by Yu et al. (Acta Pharmacol Sin 34, 1508-1514, doi:10.1038/aps.2013.147 (2013)). Briefly, rats were anesthetized with 1.25 g/kg 25% urethane and a polyethylene catheter connected to a pressure transducer (Powerlab 30, ADlnstruments) was inserted into the right carotid artery and then advanced into the left ventricle cavity. The mean heart rate, systolic blood pressure, left ventricular systolic pressure (LVSP), left ventricular end diastolic pressure (LVEDP), and maximal rates of pressure rise (+dp/dtmax) and decline (−dp/dtmax) were recorded for 30 min and then analyzed.
# Rats receiving sham surgery were used as control.
# [2] = system: primary cardiomyocyte culture; assay: Cell death assays in H2O2-treated primary cardiomyocyte culture; assay type: cell-based, Sprague Dawley rats; conditions: 10 uM peptide, 30 min before 300 uM H2O2 (4 hrs) and during 12 hr recovery
# Experimental: Hearts were removed from P1-2 Sprague Dawley rats and cut into 1 mm^3 cubes. The heart tissue was then digested in the cell digestion buffer at 37° C. for 4 min and centrifuged at 200 rpm for 1 min to remove the supernatant. The pellet was digested in the cell digestion buffer again at 37° C. until it was fully digested and then centrifuged at 200 rpm for 1 min to remove the debris. The sample was mixed with FBS to neutralize trypsin and collagenase and then centrifuged at 1000 rpm for 5 min to remove the supernatant. Cardiomyocytes were isolated from the sample by differential adhesion and then cultured in plates in the cell culture medium. Primary cardiomyocyte cultures were maintained in the 37° C. incubator with 95% […] and 5% CO2 for 5 days before being used for experiments.
# Cell death of primary cardiomyocyte culture was measured using a variety of assays. MTT and the activity of creatine kinase, lactate dehydrogenase, malondialdehyde and superoxide dismutase were measured using commercial kits and according to manufacturer's instructions. Cell apoptosis assays were conducted by treating primary cardiomyocyte culture with the Annexin V-FITC cytotoxicity kit, followed by flow cytometry (BD, FACSlalibur) to determine the apoptosis percentage.
# Primary cardiomyocyte cultures were treated with 300 uM H2O2 for 4 hours to induce oxidative stress. Then, cardiomyocytes were placed back in the normal culture medium for 12 hours before cell death analysis. 30 min before H2O2 treatment and during the 12 hour-recovery period, some cardiomyocytes were treated with 10 uM NIMoEsh-Tat peptide.
# [3] = system: pig model of transient AMI; assay: Pig model of transient AMI: TTC staining and heart infarct; assay type: in vivo, Chinese Bama miniature pigs; conditions: pigs, 2 mg/kg i.v. twice, day 30, TTC staining; vs saline, P<0.01
# [4] = system: rat model of AMI; assay: Rat model of AMI: TTC staining and measurement of heart infarct; assay type: in vivo, Sprague Dawley rats; conditions: rats, 20 mg/kg i.v. immediately after ligation, hearts removed four hours later; vs saline, P<0.01
# [5] = system: pig model of transient AMI; assay: Pig model of transient AMI: histological analysis of hearts (H & E); assay type: in vivo, Chinese Bama miniature pigs
# [6] = pigs, 2 mg/kg i.v. twice; vs saline group
# Description: The heart rate (a), electrocardiogram (QRS duration (b), QRS voltage (c), T voltage (d) and ST voltage (e)), and body weight (f) were monitored before artery occlusion, after artery occlusion and after reperfusion. […] The NIMoEsh-Tat group: N=5; the saline group: N=5. Data are presented as mean±S.E.M.
# The cardioprotective efficacy of the NIMoEsh-Tat peptide was also investigated in Chinese Bama miniature pigs. Transient AMI was induced in these pigs by occluding the left circumflex coronary artery for 1 hour, followed by blood reperfusion. Pigs received one i.v. injection of the NIMoEsh-Tat peptide (2 mg/kg) or saline 40 min after occlusion and another i.v. injection 24 hours after reperfusion. The pigs were evaluated for heart function on day 30 before they were sacrificed for histological analysis.
# [7] = system: pig model of transient AMI; assay: Pig model of transient AMI: transthoracic echocardiography; assay type: in vivo, Chinese Bama miniature pigs; conditions: pigs, 2 mg/kg i.v. 40 min after occlusion and 24 hours after reperfusion, day 30, vs saline
# [8] = male pigs, 2 mg/kg, N number 5, day 30
# [9] = male pigs, 2 mg/kg, N number 5, + = slight (almost invisible)
# [10] = male pigs, 2 mg/kg, N number 5, ++ = mild (visible but very small)
sequence,measurement,setting,value
"WAAYRTHSVDYGRKKRRQRRR [NIMoEsh-Tat, WAAYRTHSVD-YGRKKRRQRRR]","+dp/dtmax, maximal rate of pressure rise (FIG. 2g)",[1]; vs saline,rescued heart function after AMI
same,left ventricular systolic pressure (FIG. 2e),[1]; vs saline,rescued heart function after AMI
same,"−dp/dtmax, maximal rate of pressure decline (FIG. 2h)",[1]; vs saline,rescued heart function after AMI
same,heart rate (FIG. 2c),[1]; vs sham,neither saline or NIMoEsh-Tat peptide changed
same,systolic blood pressure (FIG. 2d),[1]; vs sham,neither saline or NIMoEsh-Tat peptide changed
same,"H2O2-induced cell death, cell apoptosis assay (FIG. 1b)","[2]; Annexin V-FITC, flow cytometry",effectively reduced H2O2-induced cell death
same,CK activity in the culture medium (FIG. 1c),[2]; vs H2O2 group,"did not fully rescue H2O2-induced increase of CK activity, there was a trend of decreased CK activity"
same,"H2O2-induced cell death, MTT assay (FIG. 1a)",[2]; vs H2O2 group,effectively reduced H2O2-induced cell death
same,LDH activity in the culture medium (FIG. 1e),[2]; vs H2O2 group,effectively reduced H2O2-induced cell death
same,MDA activity in cultured cells (FIG. 1d),[2]; vs H2O2 group,effectively reduced H2O2-induced cell death
same,SOD activity in cultured cells (FIG. 1f),[2]; vs H2O2 group,effectively reduced H2O2-induced cell death
same,volume of AMI-induced heart infarct (FIGS. 3e and 3f),[3],reduced the volume of AMI-induced heart infarct
same,percentage of heart tissue infarct after AMI (FIG. 2a-b),[4],significantly reduced
same,"Atrial fibrillation, Total (number of pigs)",[5]; [8],5
same,"Bleeding, Total (number of pigs)",[5]; [8],4
same,"Granuloma, Total (number of pigs)",[5]; [8],1
same,"Inflammation, Total (number of pigs)",[5]; [8],4
same,"Necrosis, Total (number of pigs)",[5]; [8],4
same,"Pericarditis, Total (number of pigs)",[5]; [8],0
same,"Atrial fibrillation, + (number of pigs)",[5]; [9],2
same,"Bleeding, + (number of pigs)",[5]; [9],4
same,"Granuloma, + (number of pigs)",[5]; [9],1
same,"Inflammation, + (number of pigs)",[5]; [9],4
same,"Pericarditis, + (number of pigs)",[5]; [9],0
same,"Atrial fibrillation, ++ (number of pigs)",[5]; [10],2
same,"Inflammation, ++ (number of pigs)",[5]; [10],0
same,"Necrosis, ++ (number of pigs)",[5]; [10],0
same,"Atrial fibrillation, +++ (number of pigs)","[5]; male pigs, 2 mg/kg, N number 5, +++ = moderate (visible and quantifiable)",1
same,"Necrosis, grade not given (number of pigs)","[5]; male pigs, 2 mg/kg, N number 5, grade cell empty, line above ++",4
same,"Pericarditis, grade not given (number of pigs)","[5]; male pigs, 2 mg/kg, N number 5, grade cell empty, line below +",0
same,"AMI-induced pathology observed under microscope, summary","[5]; pigs, 2 mg/kg i.v. twice, day 30, vs saline controls",much less AMI-induced pathology
same,"fibrillation in pig heart, H & E image (FIG. 3g)","[5]; pigs, 2 mg/kg i.v. twice, day 30, vs saline-treated pig heart",less fibrillation
same,body weight recovery after AMI (FIG. 4),[6],same level of body weight recovery
same,"stroke volume (SV, FIG. 3c)",[7]; P<0.001,rescued AMI-induced function deficits
same,"ejection fraction (EF, FIG. 3d)",[7]; P<0.05,rescued AMI-induced function deficits
